Measurements from patent publication US20200375987A1, “METALLO-BETA-LACTAMASE INHIBITORS AND METHODS OF USE THEREOF” (priority 2018, published 2020).

Tests used:
IMP-1 = IMP-1 (Serratia marcescens, UniProt P52699); assay: Enzyme activity: determination of IC50, fluorescence assay with CCF2-FA substrate (IMP-1); type: biochemical; conditions: 2 pM enzyme, 1.25 μM CCF2-FA, 2 hours at 25° C.; read-out: IMP1 IC50
Description: (§1) The Class B enzyme activities were measured in the presence of the test inhibitor in a fluorescence assay against a commercially available substrate consisting of a cephalosporin core linking 7-hydroxycoumarin to fluorescein (CCF2-FA). The enzyme (NDM-1, IMP-1 or VIM-1) and the substrate were diluted in 100 mM KH2PO4 buffer (pH 7) containing 0.005% Tween-20 and 10 μM ZnSO4. In the assay, the final concentration of enzyme was 1 pM, 2 pM and 30 pM for NDM-1, IMP-1 and VIM-1, respectively, and the final concentration of CCF2-FA was 1.25 μM. The test inhibitor was dissolved in dimethylsulfoxide and diluted 1:50 in the assay, resulting in a final concentration range of 20 μM to 0.00063 μM. In a 384-well microplate, the test inhibitor was incubated with the metallo-β-lactamase enzyme and the substrate for 2 hours at 25° C. Fluorescence at 460 nm following excitation at 405 nm was measured. The IC50 value was determined from semi-logarithmic plots of enzyme inhibition versus inhibitor concentration, with a curve generated using a 4-parameter fit.

[1] = tested on: Serratia marcescens expressing IMP-1 (CL5741); assay: Antibiotic potentiation activity: synergistic concentration (MITC95) with imipenem; type: cell-based; conditions: imipenem 1 μg/mL; lowest concentration inhibiting 95% of growth; 35° C., 22-24 hours
Description: (§2) The bacterial strains tested included the clinical strains Escherichia coli expressing NDM-1 (CLB30005, CLB30016), Serratia marcescens expressing IMP-1 (CL5741), and Klebsiella pneumoniae expressing VIM-1 (IHMA599644). Inhibitor activity was measured in the presence and absence of imipenem in a 384-well microplate.
(§3) The clinical strains CLB30016, CL5741 and IHMA599644 were grown on trypticase soy agar containing 5% sheep's blood. The bacteria on agar plates were incubated at 35° C. with humidity overnight. The following day, individual colonies from each clinical strain were picked and resuspended in 5 mL saline to attain an OD600 of 0.14, 0.11, 0.15 and 0.13, for CLB30016, CL5741 and IHMA599644, respectively. These were further diluted 1:100 into 1.1× CAMHB and used to inoculate the test wells as described below.
(§4) Imipenem in 10 mM 3-(N-morpholino)propanesulfonic acid (MOPS, pH 7) was stored in single use aliquots at −80° C. […] On the day of the assay, 4 μl of antibiotic was added to 45 μl of bacteria followed by 1 μl of test compound and mixed by pipetting and with an orbital shaker. The concentration of antibiotic used in the assay was 1 μg/mL. Microplates were covered and incubated at 35° C. for 22 hours to 24 hours. At the end of the incubation, absorbance was determined using a spectrophotometer. The synergistic concentration of MBLI was determined by identifying the lowest concentration of test compound in the presence of a given concentration of antibiotic that was required to inhibit 95% of the growth of the bacteria. The results for Examples 1-209 are reported in Table 1, expressed as the concentration of compound that potentiated the action of antibiotic (imipenem) affecting 95% inhibition of bacterial growth (MITC95).

[2] = tested on: Klebsiella pneumoniae expressing VIM-1 (IHMA599644); assay: as above; type: cell-based; conditions: imipenem 1 μg/mL; lowest concentration inhibiting 95% of growth; 35° C., 22-24 hours
Description: as §2, §3, §4

[3] = tested on: Escherichia coli expressing NDM-1 (CLB30016); assay: as above; type: cell-based; conditions: imipenem 1 μg/mL; lowest concentration inhibiting 95% of growth; 35° C., 22-24 hours
Description: as §2, §3, §4

NDM-1 = NDM-1 (Klebsiella pneumoniae, UniProt C7C422); assay: Enzyme activity: determination of IC50, fluorescence assay with CCF2-FA substrate (NDM-1); type: biochemical; conditions: 1 pM enzyme, 1.25 μM CCF2-FA, 2 hours at 25° C.; read-out: NDM1 IC50
Description: as §1

VIM-2 = VIM-2 (Escherichia coli, UniProt Q5U7L7); assay: Enzyme activity: determination of IC50 (VIM-2); type: biochemical; conditions: read-out: VIM2 IC50
[4] = tested on: P. aeruginosa MB9799 (efflux mutant, IMP-1); assay: Efflux: concentration of MBL inhibitor restoring susceptibility to imipenem (MITC95), efflux− strain; type: cell-based, Pseudomonas aeruginosa; conditions: imipenem at 2 μg/mL in the presence of a class A, C, D serine β-lactamase inhibitor closely related to relebactam
Text: (§5) In order to assess the contribution of efflux to lack of whole cell inhibition of metallo-beta-lactamase inhibitors of formula I, tool strains were constructed. The strain background is Pseudomonas aeruginosa PAO1. A wild-type (MB5919) and an isogenic strain in which multiple efflux pumps have been disrupted genetically were used. The MBL IMP-1, obtained from a clinical isolate was introduced into the strain pair by the following process:
(§6) Plasmid DNA (encoding IMP-1) was extracted from CL 5673 (IMP-1, P. aeruginosa clinical strain) by standard techniques. The plasmid DNA was transformed into parental MB5919 (oprD+, efflux+, inducible AmpC) and MB5890 (oprD+, efflux−, inducible AmpC) isogenic strains by electroporation. These transformed strains were plated onto cation-adjusted Muller-Hinton agar plates containing ceftazidime at 32 μg/mL (MB5919) and 16 μg/mL (MB5890) to select for those cells in which the IMP-1-expressing plasmid was introduced successfully, resulting in resistance to ceftazidime. Agarose-gel electrophoresis of PCR product for IMP-1 from the successful transformants was used to compare to control and to the original strain from which the plasmid was obtained, confirming transfer of the IMP-1 gene (data not shown).
(§7) The strain set was then used as a pair to determine the effect of metallo-β-lactamase inhibitors of Formula Ion the MIC of imipenem and/or ceftazidime. A fixed concentration of antibiotic is included in standard microbroth MIC tests, usually at the CLSI breakpoint concentration. A fixed amount of a class A/C beta-lactamase inhibitor is also included to inhibit the resident Pseudomonas AmpC enzyme. A serial titration of the metallo-β-lactamase inhibitor was included and the concentration of metallo-β-lactamase inhibitor which restores susceptibility of the strain to the included antibiotic was recorded. That concentration of metallo-β-lactamase inhibitor was then compared between the two strains to determine the fold difference between the efflux+(MB9798) and efflux−(MB9799) strains, which indicates n the extent to which the MBLi is subject to efflux.

[5] = tested on: P. aeruginosa MB9798 (efflux WT, IMP-1); assay: Efflux: concentration of MBL inhibitor restoring susceptibility to imipenem (MITC95), efflux+ strain; type: cell-based, Pseudomonas aeruginosa; conditions: imipenem at 2 μg/mL in the presence of a class A, C, D serine β-lactamase inhibitor closely related to relebactam
Text: as §5, §6, §7

VIM-1 = VIM-1 (Pseudomonas aeruginosa, UniProt A0A0F7KYQ8); assay: Enzyme activity: determination of IC50, fluorescence assay with CCF2-FA substrate (VIM-1); type: biochemical; conditions: 30 pM enzyme, 1.25 μM CCF2-FA, 2 hours at 25° C.; read-out: VIM1 IC50
Description: as §1

NDM-1, sequence (C7C422 29-270, looked up, species assumed): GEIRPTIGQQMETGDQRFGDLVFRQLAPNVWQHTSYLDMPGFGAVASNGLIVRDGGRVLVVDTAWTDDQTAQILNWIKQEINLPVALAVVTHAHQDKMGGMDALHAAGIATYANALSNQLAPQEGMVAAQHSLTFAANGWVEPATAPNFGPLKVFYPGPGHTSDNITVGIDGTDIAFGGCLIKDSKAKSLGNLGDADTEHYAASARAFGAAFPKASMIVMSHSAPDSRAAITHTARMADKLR
IMP-1, sequence (P52699 19-246, looked up, species assumed): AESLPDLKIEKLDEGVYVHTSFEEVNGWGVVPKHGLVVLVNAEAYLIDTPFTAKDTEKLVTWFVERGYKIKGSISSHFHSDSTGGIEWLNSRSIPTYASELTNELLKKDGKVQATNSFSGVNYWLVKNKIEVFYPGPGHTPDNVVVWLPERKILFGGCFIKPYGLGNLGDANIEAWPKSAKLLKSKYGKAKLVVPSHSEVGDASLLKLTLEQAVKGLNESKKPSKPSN

Compound | IC50 (IMP-1) [nM] | CL5741 S.marcescens MITC95 uM IMP [1] [µM] | IHMA599644 K.pneumoniae MITC95 uM VIM [2] [µM] | CLB30016 E.coli MITC95 NDM [3] [µM] | IC50 (NDM-1) [nM] | IC50 (VIM-2) [nM] | MB9799 MITC95 P. aeruginosa Efflux Mutant [4] [µM] | MB9798 MITC95 P. aeruginosa Efflux WT [5] [µM] | IC50 (VIM-1) [nM]
NC[C@@H](O)CNS(=O)(=O)c1ccc(N2CCc3cccnc32)c(-c2nn[nH]n2)c1S(N)(=O)=O [Example 36, (R)—N1-(3-amino-2-hydroxypropyl)-4-(2,3-dihydro-1H-pyrrolo [2,3-b]pyridin-1-yl)-3-(2H-tetrazol-5-yl)benzene-1,2-disulfonamide] | 1.4 | 1.56 | 3.13 | 1.56 | 0.36 | 0.49 | 0.78 | 12.50 | 0.27
NS(=O)(=O)c1c(S(=O)(=O)N[C@@H]2CCNC2)ccc(N2CCc3cccnc32)c1-c1nnn[nH]1 [Example 32, 4-(2,3-dihydro-1H-pyrrolo[2,3-b]pyridin-1-yl)-N1-[(3R)-pyrrolidin-3-yl]-3-(1H-tetrazol-5-yl)benzene-1,2-disulfonamide] | 1.14 | 1.56 | 3.13 | 1.56 | 0.21 | 0.39 | 1.56 | 3.13 | 0.17
NC[C@@H](O)CNS(=O)(=O)c1ccc(N2CCCn3ccnc32)c(-c2nnn[nH]2)c1S(N)(=O)=O [Example 16, (R)-N1-(3-amino-2-hydroxypropyl)-4-(6,7-dihydroimidazo[1,2-a]pyrimidin-8(5H)-yl)-3-(1H-tetrazol-5-yl)benzene-1,2-disulfonamide] | 5.93 | 0.39 | 1.56 | 0.10 | 1.2 | 1.01 | 0.78 | 3.13 | 0.38
NS(=O)(=O)c1c(S(=O)(=O)N[C@@H]2CCNC2)ccc(N2CCc3[nH]ncc3C2)c1-c1nnn[nH]1 [Example 30, N1-[(3R)-pyrrolidin-3-yl]-4-(1,4,6,7-tetrahydro-5H-pyrazolo[4,3-c]pyridin-5-yl)-3-(1H-tetrazol-5-yl)benzene-1,2-disulfonamide] | 1.11 | 1.56 | 6.25 | 0.78 | 0.19 | 0.98 | 1.56 | 6.25 | 0.25
NS(=O)(=O)c1c(S(=O)(=O)N[C@@H]2CCNC2)ccc(N2CCc3nc(O)ccc3C2)c1-c1nnn[nH]1 [Example 25, 4-(2-hydroxy-7,8-dihydro-1,6-naphthyridin-6(5H)-yl)-N1-[(3R)-pyrrolidin-3-yl]-3-(1H-tetrazol-5-yl)benzene-1,2-disulfonamide] | 6.11 | 0.78 | 1.56 | 0.39 | 3.09 | 4.79 | 0.78 | 6.25 | 1.1
NS(=O)(=O)c1c(S(=O)(=O)N[C@@H]2CCNC2)ccc(N2CCCn3ccnc32)c1-c1nnn[nH]1 [Example 13, (R)-4-(6,7-dihydroimidazo[1,2-a]pyrimidin-8(5H)-yl)-N1-(pyrrolidin-3-yl)-3-(1H-tetrazol-5-yl)benzene-1,2-disulfonamide] | 9.7 | 0.39 | 0.78 | 0.20 | 0.77 | 2.16 | 0.78 | 1.56 | 0.39
NS(=O)(=O)c1c(S(=O)(=O)N[C@@H]2CCNC2)ccc(N2CCc3[nH]nnc3C2)c1-c1nnn[nH]1 [Example 26, N1-[(3R)-pyrrolidin-3-yl]-4-(1,4,6,7-tetrahydro-5H-[1,2,3]triazolo[4,5-c]pyridin-5-yl)-3-(1H-tetrazol-5-yl)benzene-1,2-disulfonamide] | 5.97 | 1.56 | 3.13 | 0.78 | 2.14 | 5.08 | 0.78 | 6.25 | 1.75
NC[C@@H](O)CNS(=O)(=O)c1ccc(-n2ccnc2)c(-c2nn[nH]n2)c1S(N)(=O)=O [Example 41, (R)—N1-(3-amino-2-hydroxypropyl)-4-(1H-imidazol-1-yl)-3-(2H-tetrazol-5-yl)benzene-1,2-disulfonamide] | 2.97 | 0.78 | 1.56 | 0.78 | 0.66 | 0.96 | 0.78 | 1.56 | 1.05
NC[C@@H](O)CNS(=O)(=O)c1ccc(N2CCC(CO)n3ccnc32)c(-c2nn[nH]n2)c1S(N)(=O)=O (stereo partly drawn) [Example 38, N1-((R)-3-amino-2-hydroxypropyl)-4-(5-(hydroxymethyl)-6,7-dihydroimidazo[1,2-a]pyrimidin-8(5H)-yl)-3-(2H-tetrazol-5-yl)benzene-1,2-disulfonamide] | 4.17 | 0.78 | 1.56 | 0.20 | 0.64 | 2.42 | 0.78 | 1.56 | 0.4
